Data on 1 sequence can be found in US10906977B2, “Enhancing the therapeutic activity of immune checkpoint inhibitor” (Maine Medical Center Research Institute, priority 2016, dated 2021).

In one test the test system is Fak. The test is described as follows: Fak phosphorylation in endothelial cells attached to collagen peptides. The class given is cell-based, human. To be noted: serum free conditions. The method, then:
Whole cell and CAM tissue lysates were collected in RIPA buffer supplemented with 1× protease inhibitor and 1× phosphatase inhibitor and were run on polyacrylamide gels using denaturing conditions. Prior to loading the gels, 6× sample buffer was added to each of the lysates (final concentration 1×) and boiled for five minutes. Twenty to 50 μg of total protein were loaded into each lane. For detection of proteins larger than 50 kD, 10% gels were used; for proteins smaller than 50 kD 15% gels were used. Gels were run at 60 volts (v) until the dye front passed through the stacking gel, and then the voltage was increased to 100V for the remainder of the separation. Precision Plus protein standards (Bio-Rad) were used to visualize migration. Protein was transferred to nitrocellulose membranes using a wet tank system and blocked for 1 h using 10% non-fat dried milk in tris-buffered saline with 0.01% Tween-20 (TBS-T). […] Western blot bands were quantified using Image J software based on pixel intensity.

In a further test the test system is PD-L1. The test can be described thus: PD-L1 in control and β3 integrin knock down T-cells stimulated with peptide (western blot). The class given is cell-based, human. To be noted: FIG. 33. The method, then:
In order to confirm the functional role of integrin αvβ3 receptor in regulating the levels of the immune suppressive molecule PD-L1 by the XL313 cryptic collagen peptide P2, the expression of PD-L1 was examined in β3 integrin knock down and control transfected T-cells. Whole cell lysates from control transfected (Cont T-cells) and β3 integrin shRNA transfected T-cells (β3/KD) that were stimulated with control peptide (PC) or the XL313 cryptic collagen peptide (P2) were analyzed by western blot for expression of PD-L1.
For orientation: Immunoblotting shows a protein as a band on a membrane.

Test [1] deals with endothelial cells transduced with YAP specific or non-specific shRNAs. The test can be described thus: Growth of shRNA transduced endothelial cells with soluble RGD peptides. It counts as cell-based, human. Here is the method: HUVECs (WT, shYAP1 or control transfected) or HRMVECs were plated at 2,000 cells per well with complete EGM-2 media containing 2.0% FBS in the absence or presence of P-1, P-2 or P-C (100 ng/ml) and allowed to grow for 24 hours. Cell growth was monitored using a BrdU or MMT assay kits according to manufacturer's instructions. All assays were completed at least three times in triplicate wells.
Raw cells were transfected with 1 μg of HuSH shRNA plasmids for collagen type I, alpha 2 using Amaxa cell line nucleofector kit V (program #T024). Constructs expressing 21-nucleotide short hairpin RNAs (shRNA) targeting human YAP (shYAP) or non-targeting control (shNT, Sigma-Aldrich, SHC002) were used. Humantargeting shYAP1 lentiviral shRNA was obtained from the Thermo Scientific RNAi consortium (TRCN0000107625). Constructs were packaged into lentivirus, pseudotyped with the vesicular stomatitis virus glycoprotein. Transduction was performed by incubating cells with lentivirus, and stably transduced cells were subsequently used for studies. All cell lines were verified by morphology and mouse and human YAP-specific PCR. […] Endothelial cells were certified mycoplasma-negative by PCR (Lonza), and primary cell cultures were used within the indicated passage numbers. Cells were transduced and selected using puromycin.

Another test deals with YAP. The test can be described thus: Nuclear YAP in endothelial cells attached to collagen peptides. The class given is cell-based, human. The method, then:
(§1) Whole cell and CAM tissue lysates were collected in RIPA buffer supplemented with 1× protease inhibitor and 1× phosphatase inhibitor and were run on polyacrylamide gels using denaturing conditions. Prior to loading the gels, 6× sample buffer was added to each of the lysates (final concentration 1×) and boiled for five minutes. Twenty to 50 μg of total protein were loaded into each lane. […] Gels were run at 60 volts (v) until the dye front passed through the stacking gel, and then the voltage was increased to 100V for the remainder of the separation. Precision Plus protein standards (Bio-Rad) were used to visualize migration. Protein was transferred to nitrocellulose membranes using a wet tank system and blocked for 1 h using 10% non-fat dried milk in tris-buffered saline with 0.01% Tween-20 (TBS-T). […] Membranes were washed 3 times in TBS-T for five minutes. Blots were then incubated with HRP conjugated secondary antibodies (1:15000) in 1% non-fat milk in TBS-T for 1 h. Membranes were washed a second time as indicated above and exposed to chemiluminecent substrate for three minutes prior to exposure to autoradiography film in a dark room. Western blot bands were quantified using Image J software based on pixel intensity.

Another test concerns the target T1, integrin αvβ3 (Homo sapiens, UniProt P05106+P06756).
T1 construct: purchased R&D Systems (Minneapolis, Minn.)
The test can be described thus: Solid phase ELISA, recombinant integrin αvβ3 binding to immobilized peptide P-2. To be noted: peptide immobilized 100 μg/ml; FIG. 30. The method, then:
The cryptic collagen peptide P-2 was immobilized (100 μg/ml) on microtiter wells and increasing concentrations of recombinant integrin αvβ3 was added and integrin binding was quantified. Data bars indicate mean integrin binding±standard deviation from triplicate wells.
The cryptic collagen peptide P-2 was immobilized (100 μg/ml) on microtiter wells and recombinant integrin αvβ3 was added and it was allowed to bind in the presence (50 μg/ml) or absence of Mab X1313 or control antibody (Mab XL166 directed to other collagen RGD peptides). Data bars indicate mean integrin binding±standard deviation from triplicate wells.
Background: ELISA stands for enzyme-linked immunosorbent assay.

Test [2] has as its system chick chorioallantoic membrane (CAM). The test can be described thus: Chick CAM inflammation induced by soluble RGD collagen peptides. It counts as in vivo. To be noted: FIG. 5D. Here is the method: The chick chorioallantoic membrane (CAM) assays were carried out with some modifications (19). For all experiments CAMs of 10-day-old chick embryos obtained from Charles River (North Franklin, Conn.) were separated from the shell membrane. Filter discs either non-treated (inflammation assays) pretreated (angiogenesis assays) with cortisone acetate (3.0 mg/ml) containing RPMI only or FGF-2 (40 ng). CAMs were either non-treated or treated topically with Mab XL313, XL166 or a non-specific control antibody (10 μg/embryo every 24 h for three consecutive treatments). […] At the end of the incubation period the embryos were sacrificed and the CAM tissues were analyzed. Angiogenesis was quantified by counting the number of angiogenic branching blood vessels within the area of the filter disc. The angiogenic index was determined by subtracting the mean number of blood vessel branch points from untreated CAMs from each experimental condition. Eight to twelve embryos were used per condition and experiments were repeated at least three times.

A further test has as its system Src. The test can be described thus: Src phosphorylation in endothelial cells attached to collagen peptides (Western blot). The class given is cell-based, human. As to conditions: FIG. 7D. The method, then:
as §1

T1 sequence (P06756 31-992 limits assumed): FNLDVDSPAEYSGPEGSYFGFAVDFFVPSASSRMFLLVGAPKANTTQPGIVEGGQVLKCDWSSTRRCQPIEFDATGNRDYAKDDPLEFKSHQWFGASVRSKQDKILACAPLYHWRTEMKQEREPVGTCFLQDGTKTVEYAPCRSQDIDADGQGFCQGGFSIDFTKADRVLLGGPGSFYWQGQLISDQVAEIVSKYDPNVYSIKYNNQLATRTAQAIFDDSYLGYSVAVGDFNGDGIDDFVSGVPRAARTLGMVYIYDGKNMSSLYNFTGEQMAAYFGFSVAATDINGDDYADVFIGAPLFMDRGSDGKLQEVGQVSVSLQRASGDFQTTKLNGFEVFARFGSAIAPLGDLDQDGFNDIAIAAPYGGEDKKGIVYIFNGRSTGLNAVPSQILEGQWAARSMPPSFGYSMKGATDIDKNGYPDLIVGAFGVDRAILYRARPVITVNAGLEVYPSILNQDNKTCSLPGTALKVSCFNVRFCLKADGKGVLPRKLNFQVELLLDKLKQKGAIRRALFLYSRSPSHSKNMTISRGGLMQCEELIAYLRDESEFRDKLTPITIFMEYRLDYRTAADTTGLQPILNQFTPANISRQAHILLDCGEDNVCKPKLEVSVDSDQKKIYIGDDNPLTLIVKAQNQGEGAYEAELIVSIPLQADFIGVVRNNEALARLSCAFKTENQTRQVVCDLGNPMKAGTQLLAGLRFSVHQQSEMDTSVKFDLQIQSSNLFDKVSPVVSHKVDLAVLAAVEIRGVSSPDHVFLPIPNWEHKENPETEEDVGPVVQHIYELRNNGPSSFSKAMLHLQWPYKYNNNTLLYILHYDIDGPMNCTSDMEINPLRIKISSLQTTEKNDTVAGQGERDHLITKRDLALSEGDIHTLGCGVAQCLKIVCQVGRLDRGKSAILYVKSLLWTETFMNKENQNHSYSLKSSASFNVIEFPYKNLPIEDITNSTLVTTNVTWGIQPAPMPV
T1 sequence (P05106 27-718 limits assumed): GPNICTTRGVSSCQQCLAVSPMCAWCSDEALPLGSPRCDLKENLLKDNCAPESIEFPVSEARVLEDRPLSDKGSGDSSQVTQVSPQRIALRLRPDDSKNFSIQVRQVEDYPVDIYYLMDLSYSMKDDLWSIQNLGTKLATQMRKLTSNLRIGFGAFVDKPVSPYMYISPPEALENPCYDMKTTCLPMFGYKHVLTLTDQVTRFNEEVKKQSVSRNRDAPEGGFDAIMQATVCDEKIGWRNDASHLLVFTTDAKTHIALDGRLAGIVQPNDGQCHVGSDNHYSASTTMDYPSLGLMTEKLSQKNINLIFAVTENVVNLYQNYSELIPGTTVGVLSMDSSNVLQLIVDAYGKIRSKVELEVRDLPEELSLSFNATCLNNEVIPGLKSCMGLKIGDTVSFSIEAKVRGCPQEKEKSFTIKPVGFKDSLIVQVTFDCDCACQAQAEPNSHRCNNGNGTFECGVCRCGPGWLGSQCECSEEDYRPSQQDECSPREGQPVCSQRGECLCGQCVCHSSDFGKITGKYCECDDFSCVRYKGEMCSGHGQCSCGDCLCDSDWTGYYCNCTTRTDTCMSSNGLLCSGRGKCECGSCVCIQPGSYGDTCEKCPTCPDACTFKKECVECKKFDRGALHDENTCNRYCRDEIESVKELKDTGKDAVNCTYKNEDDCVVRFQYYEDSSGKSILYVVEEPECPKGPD

In the case of CQGPRGDKGEC [Mab P-2], in the test with Fak, the “Fak phosphorylation following ligation of peptide” value was “Minimal Fak phosphorylation”. Besides, in the test on PD-L1, the “expression of PD-L1 in control transfected T-cells” value is given as “enhanced expression of PD-L1” and the “expression of PD-L1 in β3 integrin knock down cells” value is recorded as “little ability to enhance the expression of PD-L1”. For the same sequence, in test [1] (YAP specific shRNA, FIG. 8H), the “growth of endothelial cells in which YAP was knocked down” value is recorded as “failed to induce growth”. Further, the “growth of control transduced endothelial cells with soluble peptide” value in test [1] (non-specific shRNA, FIG. 8G) is reported as “enhanced growth”. Besides, in the test on YAP (by 15 minutes, FIG. 8A), the “nuclear localized YAP (staining) as compared to P-1” value was “enhanced level of nuclear localized YAP”. In the test with YAP (cells attached to peptide, FIG. 8B), the “increase of nuclear YAP as compared to P-1 (Western blot)” value is “approximately 2 fold”. Besides, the “binding of integrin receptor αvβ3 to peptide” value at integrin αvβ3 was “dose-dependently binds”. Besides, the “CAM inflammation following stimulation with peptide” value in test [2] is on record as “induced inflammation to nearly that of FGF-2 stimulation”. Besides, in the test on Src, the “enhancement of Src phosphorylation as compared to P-1” value is recorded as approximately 2 fold.
